Experimental data taken from patent US20240246946A1, “MODULATORS OF TREX1” (Constellation Pharmaceuticals, Inc., priority 2021, published 2024).

Legend:
[1] = biological target: T1, full length human TREX1 (Homo sapiens, UniProt Q9NSU2); test: TREX1 Kinetics Assays (TR-FRET association and dissociation, global fit with Kintek Explorer); type: binding; details: for residence time: hTREX1, TR-FRET kinetics; for koff: hTREX1, TR-FRET, 25° C., global fit
T1 construct: N-terminally His-Tev tagged full length human TREX1; made in house; host or cells: E. coli
T1 sequence (Q9NSU2 1-314): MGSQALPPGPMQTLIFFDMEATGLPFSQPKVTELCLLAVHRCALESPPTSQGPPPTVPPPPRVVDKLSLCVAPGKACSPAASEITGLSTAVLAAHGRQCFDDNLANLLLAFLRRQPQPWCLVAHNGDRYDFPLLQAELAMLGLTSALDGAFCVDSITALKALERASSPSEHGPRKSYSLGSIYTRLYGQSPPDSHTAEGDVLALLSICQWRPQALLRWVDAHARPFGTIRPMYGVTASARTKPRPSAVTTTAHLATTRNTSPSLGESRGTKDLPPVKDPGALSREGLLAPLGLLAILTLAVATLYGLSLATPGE
Description: Compound binding kinetics were assessed using a pair of TR-FRET assays which measure the proportion of protein bound to a biotinylated TREX1 inhibitor (“probe”).
N-terminally His-Tev tagged full length human TREX1 (expressed in E. coli and purified in house), complexed with Eu-W1024-anti-6×His (“Eu”; PerkinElmer) in reaction buffer (50 mM Tris, 150 mM NaCl, 2 mM DTT, 0.1 mg/mL BSA, 0.01% (w/v) Tween-20, 5 mM MgCl2, pH 7.4) was combined with an equal volume of test compound in reaction buffer and incubated at 25° C. Concentrations at this stage were 1 nM TREX1/Eu complex, and four concentrations of compound (diluted from 10 mM stocks in 100% DMSO). At defined time points, 18 μL of this mixture was withdrawn and combined with 2 μL probe to a final concentration of 1 μM probe. After incubating for 30 seconds, 18 μL was withdrawn and combined with 2 μL streptavidin-allophycocyanin (“SA-APC”; PerkinElmer) to a final concentration of 1.5 μM SA-APC. Fifteen μL of this mixture was then immediately transferred to a 384-well Black ProxiPlate Plus (PerkinElmer) and read in an EnVision plate reader (PerkinElmer) measuring fluorescence at 615 nm and 665 nm following excitation w/337 nm laser light. Final concentrations were 0.8 nM TREX1/Eu complex, 0.9 μM probe, and 1.5 μM SA-APC.
N-terminally His-Tev tagged full length human TREX1 (expressed in E. coli and purified in house), complexed with Eu-W1024-anti-6×His (“Eu”; PerkinElmer) in reaction buffer (50 mM Tris, 150 mM NaCl, 2 mM DTT, 0.1 mg/mL BSA, 0.01% (w/v) Tween-20, 5 mM MgCl2, pH 7.4) was combined with an equal volume of test compound in reaction buffer. Concentrations at this stage were 100 nM TREX1/Eu complex and 100 nM test compound (diluted from 10 mM stocks in 100% DMSO). Following an equilibration period of at least an hour at 25° C., this mixture was diluted 100-fold into reaction buffer containing 1 μM probe, and incubated at 25° C. At defined time points, 36 μL of the reaction mixture was withdrawn and combined with 4 μL streptavidin-allophycocyanin (“SA-APC”; PerkinElmer) to a final concentration of 1.5 μM SA-APC. Fifteen μL of this mixture was then immediately transferred to duplicate wells of a 384-well Black ProxiPlate Plus (PerkinElmer) and read in an EnVision plate reader (PerkinElmer) measuring fluorescence at 615 nm and 665 nm following excitation w/337 nm laser light.
The TR-FRET signal, a ratio of 665 nm/615 nm emitted light, was converted to fraction enzyme bound to test compound by normalizing to low signal (no enzyme or test compound) and high signal (no test compound) controls. Data from both association and dissociation experiments were fitted globally using Kintek Explorer software, which computes the rate constants directly.

[2] = biological target: T1, full length human TREX1; test: hTREX1 Biochemical Assay (fluorescence, dsDNA substrate degradation); details: biochemical, read-out: hTREX1 IC50
Outline: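 Fluorescence rises as enzyme degrades a quenched TEX615-labelled dsDNA substrate (60 nM) in 50 mM Tris, 150 mM NaCl, 5 mM MgCl2, pH 7.4. Full-length His-Tev-tagged human TREX1, 4 pM, sits with compound 4 hours at 25° C before substrate; reaction 18 hours, stopped with EDTA.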

Structure (SMILES) | residence time [1] | koff [1] | IC50 [2]
Cc1cnc(C(c2ccccc2C#N)C(C)c2nc(C(=O)Nc3cnoc3)c(O)c(=O)n2C)cn1 (single isomer, unassigned) [Example 46 D1E2] | 346 min | 4.82e-05 s⁻¹ | 
Cc1ncc(C(c2ccccc2C#N)C(C)c2nc(C(=O)Nc3cnoc3)c(O)c(=O)n2C)cn1 (single isomer, unassigned) [Example 67 D1E2] | 408 min | 4.08e-05 s⁻¹ | < 1 nM
